The subject of data set [1] is full length SMN2 minigene mRNA containing SMN2 exon 7. The data set can be described thus: SMN2 minigene mRNA splicing RT-qPCR assay in cultured cells. It is filed as cell-based, human. The following applies: Homo sapiens, HEK293-H; HEK293H cells stably transfected with SMN2-A minigene, 24 hours, 7-point concentration curve; concentration giving 1.5-fold full length SMN2 mRNA vs vehicle; read-out: EC1.5x for production of full length SMN2 mRNA. In short, it runs like this: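 HEK293H cells stably carrying SMN2-A minigene treated 24 h (37 °C) with compound, 7-point 3.16-fold dilution, duplicates. Multiplex RT-qPCR on lysate with exon 7/luciferase primers and exon 7–8 junction probe (minigene-specific). Full-length transcript normalised to GAPDH by modified ΔΔCt, expressed relative to vehicle-treated cells.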

A further data set has as its system Smn protein. In words: Smn protein assay in cultured cells (SMN HTRF). It is filed as cell-based, human. Conditions: SMA patient fibroblast cells (GM03813), 48 hours; for EC1.5x for Smn protein expression: 7-point concentration curve, concentration producing 1.5 times Smn protein vs DMSO vehicle; for maximum fold (Fold) increase of Smn protein: 7-point concentration data, relative to vehicle control. In short, it runs like this:
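SMA patient fibroblasts, 5,000 per well in DMEM-10% FBS, exposed 48 h at 37° C. to a 7-point, 3.16-fold compound series in triplicate. RIPA lysates read by SMN HTRF (665/620 nm, overnight at room temperature); ΔF over blank expressed as fold of vehicle.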

In turn, `Cc1cn2cc(-c3cc4ccc(N5C[C@@H](C)N[C@@H](C)C5)cc4c(=O)o3)nc2c(C)n1` [Cpd 64, 3-(6,8-dimethylimidazo[1,2-a]pyrazin-2-yl)-7-[(3R,5S)-3,5-dimethylpiperazin-1-yl]-1H-isochromen-1-one] gave a melting point of 244 to 246 °C. Further, the EC (1.5-fold) in data set [1] was at most 0.1 µM. Further, in the data set on Smn protein, the “EC1.5x for Smn protein expression” value is listed as “**** (an EC1.5×≦0.3 nM is indicated by four stars (****))” and the “maximum fold (Fold) increase of Smn protein” value (“maximum fold (Fold) increase” for short) is “***** (a fold increase >1.65 is indicated by five stars (*****))”.

With `COc1ccc(F)cc1-c1cc2ccc(N3CCN[C@@H](C)C3)cc2c(=O)o1` [Cpd 48, 3-(5-fluoro-2-methoxyphenyl)-7-[(3S)-3-methylpiperazin-1-yl]-1H-isochromen-1-one], the melting point was in the range of 115 to 117 °C. Moreover, the EC (1.5-fold) in data set [1] was 0.3 to 1 µM. Besides, the “maximum fold (Fold) increase” value in the data set on Smn protein is listed as “* (A maximum fold increase of ≦1.2 is indicated by one star (*))”.

`Cc1cn2cc(-c3cc4ccc(N5C[C@@H](C)N(C)[C@@H](C)C5)cc4c(=O)o3)nc2cn1` [Cpd 131, 3-(6-methylimidazo[1,2-a]pyrazin-2-yl)-7-[(3R,5S)-3,4,5-trimethylpiperazin-1-yl]-1H-isochromen-1-one] gave a melting point of 279 to 284 °C. Further, the EC (1.5-fold) in data set [1] was at most 0.1 µM. For the same molecule, in the data set with Smn protein, the “EC1.5x for Smn protein expression” value was “**** (an EC1.5×≦0.3 nM is indicated by four stars (****))” and the “maximum fold (Fold) increase” value is “***** (a fold increase >1.65 is indicated by five stars (*****))”.

For `CCc1nc(C)cn2cc(-c3cc4ccc(N5CCN[C@@H](C)C5)cc4c(=O)o3)nc12` [Cpd 152, 3-(8-ethyl-6-methylimidazo[1,2-a]pyrazin-2-yl)-7-[(3S)-3-methylpiperazin-1-yl]-1H-isochromen-1-one], the melting point was in the range of 206 to 211 °C. The EC (1.5-fold) in data set [1] was at most 0.1 µM. In the data set with Smn protein, the “EC1.5x for Smn protein expression” value was “**** (an EC1.5×≦0.3 nM is indicated by four stars (****))” and the “maximum fold (Fold) increase” value was “***** (a fold increase >1.65 is indicated by five stars (*****))”.

`COc1cccc(-c2cc3ccc(N4CCCNCC4)cc3c(=O)o2)c1` [Cpd 21, 7-(l,4-diazepan-1-yl)-3-(3-methoxyphenyl)-1H-isochromen-1-one] showed a melting point of 148 to 150 °C. Moreover, the EC (1.5-fold) in data set [1] fell in the range of 3 to 30 µM. Moreover, the “maximum fold (Fold) increase” value with Smn protein was “* (A maximum fold increase of ≦1.2 is indicated by one star (*))”.

`CCCN1[C@H](C)CN(c2ccc3cc(-c4cn5cc(C)nc(C)c5n4)oc(=O)c3c2)C[C@@H]1C` [Cpd 148, 3-(6,8-dimethylimidazo[1,2-a]pyrazin-2-yl)-7-[(3R,5S)-3,5-dimethyl-4-propylpiperazin-1-yl]-1H-isochromen-1-one] gave a melting point of 259 to 263 °C. Also, the EC (1.5-fold) in data set [1] was at most 0.1 µM. Also, in the data set on Smn protein, the “EC1.5x for Smn protein expression” value is “*** (an EC1.5× between >0.3 nM and ≦1 nM is indicated by three stars (***))”; the “maximum fold (Fold) increase” value was “**** (a fold increase between >1.5 and ≦1.65 is indicated by four stars (****))”.

In turn, `Cc1cn2cc(-c3cc4ccc(N5CCN(CCO)CC5)cc4c(=O)o3)nc2c(C)n1` [Cpd 75, 3-(6,8-dimethylimidazo[1,2-a]pyrazin-2-yl)-7-[4-(2-hydroxyethyl)piperazin-1-yl]-1H-isochromen-1-one] gave a melting point of 248 to 250 °C. In data set [1], the EC (1.5-fold) was at most 0.1 µM. Besides, in the data set with Smn protein, the “EC1.5x for Smn protein expression” value is “*** (an EC1.5× between >0.3 nM and ≦1 nM is indicated by three stars (***))”; the “maximum fold (Fold) increase” value is on record as “***** (a fold increase >1.65 is indicated by five stars (*****))”.

Consider `Cc1cn2cc(-c3cc4ccc(N5CCN(C(C)C)CC5)cc4c(=O)o3)cc2c(C)n1` [Cpd 78, 3-(1,3-dimethylpyrrolo[1,2-a]pyrazin-7-yl)-7-[4-(propan-2-yl)piperazin-1-yl]-1H-isochromen-1-one], for which the melting point fell in the range of 213 to 215 °C. Also, the EC (1.5-fold) in data set [1] is at most 0.1 µM. Moreover, the “maximum fold (Fold) increase” value in the data set on Smn protein was “*** (a fold increase between >1.35 and ≦1.5 is indicated by three stars (***))”.

In the case of `Cc1cn2cc(-c3cc4ccc(C5CCN(C)CC5)cc4c(=O)o3)nc2c(C)n1` [Cpd 114, 3-(6,8-dimethylimidazo[1,2-a]pyrazin-2-yl)-7-(1-methylpiperidin-4-yl)-1H-isochromen-1-one], the melting point lay in the range of 248 to 250 °C. The EC (1.5-fold) in data set [1] is at most 0.1 µM. In the data set on Smn protein, the “EC1.5x for Smn protein expression” value is listed as “**** (an EC1.5×≦0.3 nM is indicated by four stars (****))” and the “maximum fold (Fold) increase” value is reported as “***** (a fold increase >1.65 is indicated by five stars (*****))”.

`CCCN1CC=C(c2ccc3cc(-c4cn5cc(C)nc(C)c5n4)oc(=O)c3c2)CC1` [Cpd 95, 3-(6,8-dimethylimidazo[1,2-a]pyrazin-2-yl)-7-(1-propyl-1,2,3,6-tetrahydropyridin-4-yl)-1H-isochromen-1-one]: the melting point was in the range of 226 to 228 °C. For the same molecule, the EC (1.5-fold) in data set [1] was at most 0.1 µM. In addition, in the data set on Smn protein, the “EC1.5x for Smn protein expression” value is “**** (an EC1.5×≦0.3 nM is indicated by four stars (****))” and the “maximum fold (Fold) increase” value is on record as “***** (a fold increase >1.65 is indicated by five stars (*****))”.

In turn, `C[C@@H]1CN(c2ccc3cc(-c4nc5ccccc5s4)oc(=O)c3c2)C[C@H](C)N1` [Cpd 9, 3-(1,3-benzothiazol-2-yl)-7-[(3R,5S)-3,5-dimethylpiperazin-1-yl]-1H-isochromen-1-one] displayed a melting point of 310 to 312 °C. The EC (1.5-fold) in data set [1] was 3 to 30 µM. Further, the “maximum fold (Fold) increase” value in the data set with Smn protein is “* (A maximum fold increase of ≦1.2 is indicated by one star (*))”.

As for `O=c1oc(-c2ccsc2)cc2ccc(N3CCNCC3)cc12` [Cpd 2, 7-(piperazin-1-yl)-3-(thiophen-3-yl)-1H-isochromen-1-one], the melting point is 240 °C (dec.). In addition, the EC (1.5-fold) in data set [1] was in the range of 0.3 to 1 µM. The “maximum fold (Fold) increase” value with Smn protein is “** (a fold increase between >1.2 and ≦1.35 is indicated by two stars (**))”.

`CN1CCCN(c2ccc3cc(-c4ccc5c(c4)OC(F)(F)O5)oc(=O)c3c2)CC1` [Cpd 7, 3-(2,2-difluoro-1,3-benzodioxol-5-yl)-7-(4-methyl-1,4-diazepan-1-yl)-1H-isochromen-1-one] yielded a melting point of 175 to 177 °C. Further, the EC (1.5-fold) in data set [1] is 1 to 3 µM. Also, in the data set on Smn protein, the “maximum fold (Fold) increase” value was “* (A maximum fold increase of ≦1.2 is indicated by one star (*))”.

In turn, `Cc1cn2cc(-c3cc4ccc(N5CCN(C(C)C)CC5)cc4c(=O)o3)nc2c(C)n1` [Cpd 74, 3-(6,8-dimethylimidazo[1,2-a]pyrazin-2-yl)-7-[4-(propan-2-yl)piperazin-1-yl]-1H-isochromen-1-one] gave a melting point of 260 to 262 °C. Moreover, the EC (1.5-fold) in data set [1] was at most 0.1 µM. In the data set with Smn protein, the “EC1.5x for Smn protein expression” value is “**** (an EC1.5×≦0.3 nM is indicated by four stars (****))” and the “maximum fold (Fold) increase” value was “***** (a fold increase >1.65 is indicated by five stars (*****))”.

`Cc1cn2cc(-c3cc4ccc(N5CCN(C6COC6)[C@@H](C)C5)cc4c(=O)o3)nc2c(C)n1` [Cpd 139, 3-(6,8-dimethylimidazo[1,2-a]pyrazin-2-yl)-7-[(3S)-3-methyl-4-(oxetan-3-yl)piperazin-1-yl]-1H-isochromen-1-one] returned a melting point of 251 to 256 °C. The EC (1.5-fold) in data set [1] is 0.3 to 1 µM. In addition, in the data set with Smn protein, the “EC1.5x for Smn protein expression” value was “** (an EC1.5× between >1 μM, and ≦3 nM is indicated by two stars (**))”; the “maximum fold (Fold) increase” value was “***** (a fold increase >1.65 is indicated by five stars (*****))”.

Consider `O=c1oc(-c2nc3ccccc3s2)cc2ccc(N3CCNCC3)cc12` [Cpd 8, 3-(1,3-benzothiazol-2-yl)-7-(piperazin-1-yl)-1H-isochromen-1-one], for which the melting point is 324 to 326 °C. Also, in data set [1], the EC (1.5-fold) lay within 3 to 30 µM. Besides, in the data set on Smn protein, the “maximum fold (Fold) increase” value is “* (A maximum fold increase of ≦1.2 is indicated by one star (*))”.

These data come from patent publication US9399649B2, “Compounds for treating spinal muscular atrophy” (PTC Therapeutics Inc., priority 2012, dated 2016).
